Measurements: US9321764B2, “Dihydro-pyrrolopyridinone inhibitors” (AbbVie Inc., priority 2013, dated 2016)

How the values were obtained:
BRD4 (BDII_E352-M457) = molecular target: T1, BRD4 (BDII_E352-M457) (Homo sapiens, UniProt O60885); assay: TR-FRET bromodomain binding assay, second bromodomain of BRD4; settings: His-tagged BD2, 30 nM Alexa647 probe; TR-FRET protocol A-E given per row
T1 construct: proliferation; Protocol; made in house
Method: (§1) A time-resolved fluorescence resonance energy transfer (TR-FRET) assay was used to determine the affinities of compounds of the Examples listed in Table 1 for each bromodomain of BRD4. His-tagged first (BD1: amino acids K57-E168) and second (BD2: amino acids E352-E168) bromodomains of BRD4 were expressed and purified. An Alexa647-labeled BET-inhibitor was used as the fluorescent probe in the assay.
(§2) Compound dilution series were prepared in DMSO via an approximately 3-fold serial dilution from one of the following:
(§3) Assay method D: 2.5 mM-800 nM
For Assay methods A, C, and D: Compounds were then diluted 6:100 in assay buffer (20 mM Sodium Phosphate, pH 6.0, 50 mM NaCl, 1 mM Ethylenediaminetetraacetic acid, 0.01% Triton X-100, 1 mM DL-Dithiothreitol) to yield 3× working solutions. […] Twelve μL of this solution were added to the assay plate to reach a final volume of 18 μL.
TR-FRET data were normalized to the means of 24 no-compound controls (“high”) and 8 controls containing 1 μM un-labeled probe (“low”). Percent inhibition was plotted as a function of compound concentration and the data were fit with the 4 parameter logistic equation to obtain IC50s Inhibition constants (Ki) were calculated from the IC50s, probe Kd and probe concentration. Typical Z′ values were between 0.65 and 0.75.

BRD4 (BDI_K57-E168) = molecular target: T2, BRD4 (BDI_K57-E168) (Homo sapiens, UniProt O60885); assay: TR-FRET bromodomain binding assay, first bromodomain of BRD4; settings: His-tagged BD1, 100 nM Alexa647 probe; TR-FRET protocol A-E given per row
T2 construct: BD1: amino acids K57-E168; made in house
Method: as §1, §2
Assay method A: 250 μM-4.2 nM
Assay method B: 0.47 mM to 7.8 nM
Assay method C: 500 μM-8.5 nM
as §3
Assay method E: 0.047 mM to 0.78 nM or 5-fold serial dilution from Assay method D
For Assay methods A, C, and D: Compounds were then diluted 6:100 in assay buffer (20 mM Sodium Phosphate, pH 6.0, 50 mM NaCl, 1 mM Ethylenediaminetetraacetic acid, 0.01% Triton X-100, 1 mM DL-Dithiothreitol) to yield 3× working solutions. Six microliters (μL) of the working solution was then transferred to white, low-volume assay plates (Costar #3673). A 1.5× assay mixture containing His-tagged bromodomain, Europium-conjugated anti-His antibody (Invitrogen PV5596) and the Alexa-647-conjugated probe molecule was also prepared. Twelve μL of this solution were added to the assay plate to reach a final volume of 18 μL.
For Assay methods B and E: Compound dilutions were added directly into white, low-volume assay plates (Perkin Elmer Proxiplate 384 Plus #6008280) using a Labcyte Echo in conjunction with Labcyte Access and Thermo Multidrop CombinL robotics. Compounds were then suspended in eight microliters (μL) of assay buffer (20 mM Sodium Phosphate, pH 6.0, 50 mM NaCl, 1 mM Ethylenediaminetetraacetic acid disodium salt dihydrate, 0.01% Triton X-100, 1 mM DL-Dithiothreitol) containing His-tagged bromodomain, Europium-conjugated anti-His antibody (Invitrogen PV5596) and Alexa-647-conjugated probe.
The final concentration of 1× assay mixture for assay methods A, B, C, D, and E contains 2% DMSO, 8 nM His-tagged bromodomain, 1 nM Europium-conjugated anti-His-tag antibody and 100 nM or 30 nM probe (for BDI or BDII, respectively) and compound concentration in the range of: 5 μM-85 pM for method A, 9.19 μM 150 pM for method B, 10 μM-169 pM for method C, 50 μM-16 nM for method D, and 0.92 μM-15 pM for method E.
After a one-hour equilibration at room temperature, TR-FRET ratios were determined using an Envision multilabel plate reader (Ex 340, Em 495/520).
TR-FRET data were normalized to the means of 24 no-compound controls (“high”) and 8 controls containing 1 μM un-labeled probe (“low”). Percent inhibition was plotted as a function of compound concentration and the data were fit with the 4 parameter logistic equation to obtain IC50s Inhibition constants (Ki) were calculated from the IC50s, probe Kd and probe concentration. Typical Z′ values were between 0.65 and 0.75. The minimum significant ratio was determined to evaluate assay reproducibility (Eastwood et al., (2006) J Biomol Screen, 11: 253-261). The MSR was determined to be 2.03 for BDI and 1.93 for BDII, and a moving MSR (last six run MSR overtime) for both BDI and BDII was typically <3.

| Compound | Ki (BRD4 (BDII_E352-M457)) [µM] | Ki (BRD4 (BDI_K57-E168)) [µM] |
| --- | --- | --- |
| Cn1cc(-c2cc(NS(C)(=O)=O)ccc2Oc2ccc(F)cc2F)c2cc[nH]c(=O)c21 [Example 2, N-[4-(2,4-difluorophenoxy)-3-(1-methyl-7-oxo-6,7-dihydro-1H-pyrrolo[2,3-c]pyridin-3-yl)phenyl]methanesulfonamide] | 0.013 | 0.0062 |
| CCS(=O)(=O)Nc1ccc(Oc2ccc(F)cc2F)c(-c2cn(C)c3c(=O)[nH]ccc23)c1 [Example 4, N-[4-(2,4-difluorophenoxy)-3-(1-methyl-7-oxo-6,7-dihydro-1H-pyrrolo[2,3-c]pyridin-3-yl)phenyl]ethanesulfonamide] | 0.0072 | 0.0059 |
| Cn1cc(-c2cc(NS(C)(=O)=O)c(Oc3ccc(F)cc3F)cc2F)c2cc[nH]c(=O)c21 [Example 12, N-[2-(2,4-difluorophenoxy)-4-fluoro-5-(1-methyl-7-oxo-6,7-dihydro-1H-pyrrolo[2,3-c]pyridin-3-yl)phenyl]methanesulfonamide] | 1.17 | 0.684 |
| CCS(=O)(=O)Nc1ccc(Oc2ccc(F)cc2)c(-c2cn(C)c3c(=O)[nH]ccc23)c1 [Example 15, N-[4-(4-fluorophenoxy)-3-(1-methyl-7-oxo-6,7-dihydro-1H-pyrrolo[2,3-c]pyridin-3-yl)phenyl]ethanesulfonamide] | 0.012 | 0.0033 |
| Cn1cc(-c2cc(S(C)(=O)=O)ccc2Oc2ccccc2)c2cc[nH]c(=O)c21 [Example 18, 1-methyl-3-[5-(methylsulfonyl)-2-phenoxyphenyl]-1,6-dihydro-7H-pyrrolo[2,3-c]pyridin-7-one] | 0.021 | 0.012 |
| COc1ccc(S(C)(=O)=O)cc1-c1cn(C)c2c(=O)[nH]ccc12 [Example 21, 3-[2-methoxy-5-(methylsulfonyl)phenyl]-1-methyl-1,6-dihydro-7H-pyrrolo[2,3-c]pyridin-7-one] | 0.721 | 0.438 |
| Cn1cc(-c2cc(S(C)(=O)=O)ccc2OCCC2CCCC2)c2cc[nH]c(=O)c21 [Example 35, 3-[2-(2-cyclopentylethoxy)-5-(methylsulfonyl)phenyl]-1-methyl-1,6-dihydro-7H-pyrrolo[2,3-c]pyridin-7-one] | 0.111 | 0.042 |
| Cn1cc(-c2cc(S(C)(=O)=O)ccc2OCCC2CCCCC2)c2cc[nH]c(=O)c21 [Example 36, 3-[2-(2-cyclohexylethoxy)-5-(methylsulfonyl)phenyl]-1-methyl-1,6-dihydro-7H-pyrrolo[2,3-c]pyridin-7-one] | 0.515 | 0.146 |
| Cn1cc(-c2cc(S(C)(=O)=O)ccc2OCCc2ccccc2)c2cc[nH]c(=O)c21 [Example 37, 1-methyl-3-[5-(methylsulfonyl)-2-(2-phenylethoxy)phenyl]-1,6-dihydro-7H-pyrrolo[2,3-c]pyridin-7-one] | 0.099 | 0.052 |
| Cn1cc(-c2cc(S(C)(=O)=O)ccc2OC2Cc3ccccc3C2)c2cc[nH]c(=O)c21 [Example 38, 3-[2-(2,3-dihydro-1H-inden-2-yloxy)-5-(methylsulfonyl)phenyl]-1-methyl-1,6-dihydro-7H-pyrrolo[2,3-c]pyridin-7-one] | 0.435 | 0.09 |
| Cn1cc(-c2cc(S(C)(=O)=O)ccc2OCCc2cccs2)c2cc[nH]c(=O)c21 [Example 39, 1-methyl-3-{5-(methylsulfonyl)-2-[2-(thiophen-2-yl)ethoxy]phenyl}-1,6-dihydro-7H-pyrrolo[2,3-c]pyridin-7-one] | 0.051 | 0.063 |
| Cn1ccc2c(-c3cc(S(C)(=O)=O)ccc3OCC3CC3(F)F)cn(C)c2c1=O (stereo not shown) [Example 43, 3-{2-[(2,2-difluorocyclopropyl)methoxy]-5-(methylsulfonyl)phenyl}-1,6-dimethyl-1,6-dihydro-7H-pyrrolo[2,3-c]pyridin-7-one] | 2.54 | 2.58 |
| Cn1cc(-c2cc(S(C)(=O)=O)ccc2NCC2CCCCC2)c2cc[nH]c(=O)c21 [Example 47, 3-{2-[(cyclohexylmethyl)amino]-5-(methylsulfonyl)phenyl}-1-methyl-1,6-dihydro-7H-pyrrolo[2,3-c]pyridin-7-one] | 0.124 | 0.033 |
| Cc1cccc(OCC2CC2)c1-c1cn(C)c2c(=O)[nH]ccc12 [Example 50, 3-[2-(cyclopropylmethoxy)-6-methylphenyl]-1-methyl-1,6-dihydro-7H-pyrrolo[2,3-c]pyridin-7-one] | > 4.44 | 1.71 |
| CCS(=O)(=O)c1cnc(Oc2ccc(F)cc2F)c(-c2cn(C)c3c(=O)[nH]ccc23)c1 [Example 59, 3-[2-(2,4-difluorophenoxy)-5-(ethylsulfonyl)pyridin-3-yl]-1-methyl-1,6-dihydro-7H-pyrrolo[2,3-c]pyridin-7-one] | 0.6 | 0.606 |
| Cn1cc(-c2cc(S(C)(=O)=O)ccc2Oc2ccc(C(C)(C)C)cc2)c2cc[nH]c(=O)c21 [Example 62, 3-[2-(4-tert-butylphenoxy)-5-(methylsulfonyl)phenyl]-1-methyl-1,6-dihydro-7H-pyrrolo[2,3-c]pyridin-7-one] | 0.291 | 0.357 |
| Cn1cc(-c2cc(S(C)(=O)=O)ccc2OCCC23CC4CC(CC(C4)C2)C3)c2cc[nH]c(=O)c21 [Example 65] | 2.64 | 0.416 |
| Cn1cc(-c2cc(S(C)(=O)=O)ccc2OCCCC2CCCC2)c2cc[nH]c(=O)c21 [Example 66, 3-[2-(3-cyclopentylpropoxy)-5-(methylsulfonyl)phenyl]-1-methyl-1,6-dihydro-7H-pyrrolo[2,3-c]pyridin-7-one] | 0.741 | 0.219 |
| Cn1cc(-c2cc(S(C)(=O)=O)ccc2NCC(F)(F)F)c2cc[nH]c(=O)c21 [Example 69, 1-methyl-3-{5-(methylsulfonyl)-2-[(2,2,2-trifluoroethyl)amino]phenyl}-1,6-dihydro-7H-pyrrolo[2,3-c]pyridin-7-one] | 2.29 | 0.773 |
| Cn1cc(-c2cc(S(C)(=O)=O)ccc2NCC(F)(F)C(F)(F)C(F)(F)F)c2cc[nH]c(=O)c21 [Example 70, 3-{2-[(2,2,3,3,4,4,4-heptafluorobutyl)amino]-5-(methylsulfonyl)phenyl}-1-methyl-1,6-dihydro-7H-pyrrolo[2,3-c]pyridin-7-one] | 1.66 | 0.613 |
| Cn1cc(-c2cc(S(C)(=O)=O)ccc2NCCC2CCCC2)c2cc[nH]c(=O)c21 [Example 72, 3-{2-[(2-cyclopentylethyl)amino]-5-(methylsulfonyl)phenyl}-1-methyl-1,6-dihydro-7H-pyrrolo[2,3-c]pyridin-7-one] | 0.967 | 0.492 |
| CCS(=O)(=O)c1ccc(Oc2ccncc2)c(-c2cn(C)c3c(=O)[nH]ccc23)c1 [Example 74, 3-[5-(ethylsulfonyl)-2-(pyridin-4-yloxy)phenyl]-1-methyl-1,6-dihydro-7H-pyrrolo[2,3-c]pyridin-7-one] | 0.388 | > 2.38 |
| CCS(=O)(=O)c1ccc(Oc2cnc(C)cc2C)c(-c2cn(C)c3c(=O)[nH]ccc23)c1 [Example 75, 3-{2[(4,6-dimethylpyridin-3-yl)oxy]-5-(ethylsulfonyl)phenyl}-1-methyl-1,6-dihydro-7H-pyrrolo[2,3-c]pyridin-7-one] | 0.042 | 0.131 |
